{"source": "patent US20260191783A1", "about": "“DRUG DELIVERY FORMULATIONS” (The Regents of the University of California, priority 2018, published 2026)", "key": {"[1]": {"type": "physicochemical", "experimental": "Oxidized porous silicon microparticles were prepared using a similar method to those used for segesterone acetate melt casting described elsewhere (75% porosity, 800° C. oxidation). […] Once molten, the LNG-CHOL mixture was left to infiltrate the porous silica materials for 5 minutes before cooling to room temperature. The oxidized porous silicon material containing LNG-CHOL was then recovered and ground into microparticles using a mortar and pestle. The loaded oxidized porous silicon particles were then evaluated for their release kinetics in 1×PBS (pH 7.4) at 37° C. Approximately 2 mg of LNG-PSi were placed in a glass vial containing 3.5 mL of 1×PBS and placed in a 37° C. incubator on a moving platform to induce mild agitation of the solution. 3 mL of the PBS was removed every 24 hours and replaced with fresh solution. The extracted supernatant was then analyzed for LNG content by high performance liquid chromatography (HPLC)."}, "estrogen receptor": {"target": "T1, estrogen receptor (Homo sapiens, UniProt P03372)", "T1 sequence (P03372 1-595)": "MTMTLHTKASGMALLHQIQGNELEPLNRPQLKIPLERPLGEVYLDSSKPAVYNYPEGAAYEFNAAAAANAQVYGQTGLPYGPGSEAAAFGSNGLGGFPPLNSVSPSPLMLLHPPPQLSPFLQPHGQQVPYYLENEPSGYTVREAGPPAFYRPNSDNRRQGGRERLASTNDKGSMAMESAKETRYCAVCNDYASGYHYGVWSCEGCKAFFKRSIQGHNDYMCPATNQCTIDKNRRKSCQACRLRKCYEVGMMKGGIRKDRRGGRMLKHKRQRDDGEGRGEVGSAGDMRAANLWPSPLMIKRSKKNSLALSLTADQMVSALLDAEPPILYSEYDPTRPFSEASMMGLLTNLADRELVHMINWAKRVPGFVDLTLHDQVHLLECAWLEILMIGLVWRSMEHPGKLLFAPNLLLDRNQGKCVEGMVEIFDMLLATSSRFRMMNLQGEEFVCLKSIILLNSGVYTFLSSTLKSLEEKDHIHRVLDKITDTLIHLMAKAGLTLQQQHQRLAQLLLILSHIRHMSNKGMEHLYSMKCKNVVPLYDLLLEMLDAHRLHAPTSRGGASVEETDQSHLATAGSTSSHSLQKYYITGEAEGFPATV", "details": "cited from earlier work"}, "[2]": {"assay": "In vitro dissolution / segesterone acetate release in 1x PBS", "type": "physicochemical", "details": "1x PBS pH 7.4, 37° C., mild agitation, starting SEG 0.4 mg/mL", "experimental": "Modulation of Segesterone Acetate Release Profile. Three main particle parameters were investigated as to their effect on the release of loaded SEG: particle oxidation temperature, drug loading, and particle porosity. Unless otherwise mentioned, the baseline particle formulation used was 55% porosity, oxidized at 800° C. and had segesterone acetate loading of 70% weight/weight. Drug release was modeled by in vitro dissolution in 1× phosphate buffered saline (pH 7.4) under mild agitation at 37° C. For all studies, starting segesterone acetate concentration was kept constant at 0.4 mg/mL based on the percent loading of the given formulation. […] Segesterone acetate concentrations were evaluated by HPLC with absorbance measurements at 254 nm."}, "androgen receptor": {"target": "T2, androgen receptor (Homo sapiens, UniProt P10275)", "T2 sequence (P10275 1-920)": "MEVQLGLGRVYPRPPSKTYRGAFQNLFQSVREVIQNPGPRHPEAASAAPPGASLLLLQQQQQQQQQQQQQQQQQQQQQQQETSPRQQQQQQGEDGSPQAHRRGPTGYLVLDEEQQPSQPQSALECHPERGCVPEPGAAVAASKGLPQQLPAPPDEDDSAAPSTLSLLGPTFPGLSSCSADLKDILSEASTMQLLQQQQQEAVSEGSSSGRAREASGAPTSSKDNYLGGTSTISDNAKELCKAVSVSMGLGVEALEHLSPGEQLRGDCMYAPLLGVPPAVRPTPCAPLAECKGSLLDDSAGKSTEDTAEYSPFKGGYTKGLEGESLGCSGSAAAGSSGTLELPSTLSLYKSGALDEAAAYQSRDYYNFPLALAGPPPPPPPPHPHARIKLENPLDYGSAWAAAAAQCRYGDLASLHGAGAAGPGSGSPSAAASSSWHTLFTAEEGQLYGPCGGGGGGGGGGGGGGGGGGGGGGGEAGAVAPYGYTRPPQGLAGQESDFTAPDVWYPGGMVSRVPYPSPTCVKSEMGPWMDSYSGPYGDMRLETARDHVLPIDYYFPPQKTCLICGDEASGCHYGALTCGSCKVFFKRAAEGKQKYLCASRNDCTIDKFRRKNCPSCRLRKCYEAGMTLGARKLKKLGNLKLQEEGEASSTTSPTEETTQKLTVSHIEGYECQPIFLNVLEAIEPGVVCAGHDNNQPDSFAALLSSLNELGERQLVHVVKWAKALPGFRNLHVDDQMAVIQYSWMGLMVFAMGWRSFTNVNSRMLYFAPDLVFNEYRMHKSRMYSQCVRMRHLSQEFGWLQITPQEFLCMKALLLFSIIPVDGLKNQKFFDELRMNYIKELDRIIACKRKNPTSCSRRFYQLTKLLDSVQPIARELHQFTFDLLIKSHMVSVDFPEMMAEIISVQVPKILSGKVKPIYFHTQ", "details": "cited from earlier work"}, "[3]": {"assay": "Serum segesterone acetate by HPLC-MS/MS after subcutaneous injection", "details": "rat, 50 mg/kg SEG", "quoted_text": "In Vivo Performance. In vivo studies were performed in female adult Sprague-Dawley rats, weighing approximately 300 g each. […] Animals received a subcutaneous injection in the scruff of the neck containing 50 mg/kg SEG.\nFor longer term studies, five experimental groups (n=5 animals each) were studied: empty porous silica particles, pure non-micronized SEG, medium porosity 70 wt % segesterone acetate loaded particles and two groups of two different batches of high porosity 70 wt % segesterone acetate loaded particles. The five groups were monitored for 6 months with body weight measurements and tail-vein blood draws taken weekly.\nSerum samples were processed and submitted to a third-party lab for segesterone acetate detection via HPLC-MS/MS."}}}
{"smiles": "C#C[C@]1(OC(=O)CCC)CC[C@H]2[C@@H]3CCC4=CC(=O)CC[C@@H]4[C@H]3CC[C@@]21CC", "note": "[Levonorgestrel Butanoate]", "values": [{"measurement": "Tdegradeable", "setting": "STA under nitrogen flow", "value": 230, "unit": "°C"}, {"measurement": "Window [Tdegradeable − Tmelt]", "setting": "difference between melting and degradation temperatures, STA under nitrogen flow", "value": 26, "unit": "°C"}]}
{"smiles": "C#C[C@]1(O)CC[C@H]2[C@@H]3CCC4=CC(=O)CC[C@@H]4[C@H]3CC[C@@]21CC", "note": "[Levonorgestrel]", "values": [{"measurement": "temperature at which the drug began to lose mass", "setting": "oxygen atmosphere, heating rate 10° C.", "value": "approximately 233 °C"}, {"measurement": "chemical alteration or degradation by the melt casting process", "setting": "[1]", "value": "not chemically altered or degraded"}]}
{"smiles": "C=C1C[C@H]2[C@@H]3CCC4=CC(=O)CC[C@@H]4[C@H]3CC[C@]2(C)[C@@]1(OC(C)=O)C(C)=O", "note": "[segesterone acetate]", "values": [{"measurement": "binding to the estrogen receptor", "setting": "estrogen receptor", "value": "does not significantly bind"}, {"measurement": "duration of segesterone acetate release / time to full clearance from the test chamber", "setting": "[2]; listed as crystalline segesterone acetate controls", "value": 40, "unit": "days"}, {"measurement": "duration of segesterone acetate release / time to full clearance from the test chamber", "setting": "[2]; listed as pure segesterone acetate", "value": "35 to 40", "unit": "days"}, {"measurement": "binding to the androgen receptor", "setting": "androgen receptor", "value": "does not significantly bind"}, {"measurement": "segesterone acetate detection in serum at terminal 6-month timepoint", "setting": "[3]", "value": "still detected"}]}
